Measurements from ChEMBL document CHEMBL4665675 (J Med Chem, 2020).

Key:
P388 = assay: Antiproliferative activity against mouse P388 cells incubated for 72 hrs by Coulter counter method; format: functional, cell-based; settings: P388, 72 h
CCRF-CEM = assay: Cytotoxicity against human CEM cells incubated for 48 to 72 hrs by Cell Titer 96 aqueous one solution cell proliferation assay; format: functional, cell-based
LoVo = assay: Antiproliferative activity against human LoVo cells incubated for 72 hrs by sulforhodamine B assay; format: functional, cell-based
MCF7 [1] = assay: Antiproliferative activity against human MCF7 cells incubated for 72 hrs by sulforhodamine B assay; format: functional, cell-based; settings: MCF7, 72 h
A549 [2] = assay: Antiproliferative activity against human A549 cells incubated for 72 hrs by sulforhodamine B assay; format: functional, cell-based; settings: A549, 72 h
[3] = Antiproliferative activity against human LoVo/DX cells incubated for 72 hrs by sulforhodamine B assay; format: functional, cell-based
BALB/3T3 = assay: Cytotoxicity against mouse BALB/3T3 cells incubated for 72 hrs by sulforhodamine B assay; format: cell-based; settings: BALB/3T3, 72 h
[4] = Antiproliferative activity against human ALL5 cells incubated for 120 hrs by MTT assay; format: functional, cell-based; settings: ALL5, 120 h
HeLa = assay: Cytotoxicity against human HeLa cells after 24 to 72 hrs by Cell Titer Blue assay; format: cell-based
[5] = molecular target: T1, carboxylesterase 1 (CES1) (Homo sapiens, UniProt P23141); assay: Substrate activity at human carboxylesterase 1 expressed in baculovirus infected Sf9 insect cells assessed as enzyme-catalysed compound cleavage incubated for 2 hrs by HPLC analysis; format: ADME; settings: read-out: Activity
T1 sequence (P23141 whole entry): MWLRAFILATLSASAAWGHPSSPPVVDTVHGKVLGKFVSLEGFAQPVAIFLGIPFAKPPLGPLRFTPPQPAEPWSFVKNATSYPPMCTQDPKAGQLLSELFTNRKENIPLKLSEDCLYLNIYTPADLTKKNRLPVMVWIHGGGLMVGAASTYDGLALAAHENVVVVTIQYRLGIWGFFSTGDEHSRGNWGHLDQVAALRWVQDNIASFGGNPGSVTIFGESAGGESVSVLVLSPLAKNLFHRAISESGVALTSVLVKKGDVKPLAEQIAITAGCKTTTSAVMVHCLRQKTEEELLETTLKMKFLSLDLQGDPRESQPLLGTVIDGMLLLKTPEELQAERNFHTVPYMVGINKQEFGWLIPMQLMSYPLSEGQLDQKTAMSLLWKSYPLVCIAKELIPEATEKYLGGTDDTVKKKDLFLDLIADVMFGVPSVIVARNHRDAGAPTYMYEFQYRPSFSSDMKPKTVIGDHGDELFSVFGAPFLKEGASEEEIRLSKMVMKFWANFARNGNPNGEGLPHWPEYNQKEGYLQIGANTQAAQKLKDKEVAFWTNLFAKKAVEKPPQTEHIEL

MCF7 [6] = assay: Cytotoxicity against human MCF7 cells; format: functional, cell-based
A2780 = assay: Cytotoxicity against human A2780 cells; format: functional, cell-based
Bel-7402 = assay: Cytotoxicity against human BEL7402 cells; format: functional, cell-based
A549 [7] = assay: Cytotoxicity against human A549 cells; format: functional, cell-based

IC50 (LoVo)	IC50 (MCF7 [1])	IC50 (A549 [2])	SMILES	IC50 [3]	IC50 (BALB/3T3)	other results
–	–	–	CCCCNc1ccc2c(cc1=O)[C@@H](NC(C)=O)CCc1cc(OC)c(OC)c(OC)c1-2	–	–	IC50 (P388): 240 nM
–	–	–	CCC(=O)Oc1c(OC)c(OC)cc2c1-c1ccc(OC)c(=O)cc1[C@@H](NC(C)=O)CC2	–	–	IC50 (CCRF-CEM): 12 nM
–	–	–	CCCNc1ccc2c(cc1=O)[C@@H](NC(C)=O)CCc1cc(OC)c(OC)c(OC)c1-2	–	–	IC50 (P388): 36 nM
–	–	–	COCCOc1c(OC)c(OC)cc2c1-c1ccc(OC)c(=O)cc1[C@@H](NC(C)=O)CC2	–	–	IC50 (CCRF-CEM): 12 nM
11 nM	11 nM	11 nM	COC(=O)N[C@H]1CCc2c(Cl)c(OC)c(OC)c(OC)c2-c2ccc(SC)c(=O)cc21	11 nM	11 nM	–
78 nM	78 nM	78 nM	CCCCCCCCCC(=O)N[C@H]1CCc2c(Cl)c(OC)c(OC)c(OC)c2-c2ccc(SC)c(=O)cc21	78 nM	78 nM	IC50 [4]: 78 nM
–	–	–	COc1cc2c(c(OC)c1OC)-c1ccc(NN(C)C)c(=O)cc1[C@@H](NC(C)=O)CC2	–	–	IC50 (P388): 25 nM
–	–	–	COc1cc2c(c(OC)c1OC)-c1ccc(=N)c(O)cc1[C@@H](NC(C)=O)CC2	–	–	IC50 (HeLa): 7 nM
–	–	–	COc1cc2c(c(OC)c1OC)-c1ccc(NCCCCCC(=O)N[C@@H](CC(C)C)C(=O)OC3CCCC3)c(=O)cc1[C@@H](NC(C)=O)CC2	–	–	IC50 (HeLa): 4620 nM; metabolised at 2 h [5]: 36%
–	–	–	COc1cc2c(c(OC(=O)C(C)C)c1OC)-c1ccc(OC)c(=O)cc1[C@@H](NC(C)=O)CC2	–	–	IC50 (CCRF-CEM): 12 nM
–	–	–	COc1cc2c(c(OCc3cccc(Cl)c3)c1OC)-c1ccc(OC)c(=O)cc1[C@@H](NC(C)=O)CC2	–	–	IC50 (CCRF-CEM): 12 nM
–	–	–	COc1cc2c(c(OCc3ccc(Cl)cc3)c1OC)-c1ccc(OC)c(=O)cc1[C@@H](NC(C)=O)CC2	–	–	IC50 (CCRF-CEM): 12 nM
–	–	–	COc1cc2c(c(OC)c1OC)-c1ccc(NCCOC(=O)CCC(=O)OCCCCCO[N+](=O)[O-])c(=O)cc1[C@@H](NC(C)=O)CC2	–	–	IC50 (MCF7 [6]): 40 nM; IC50 (A2780): 20 nM; IC50 (Bel-7402): 40 nM; IC50 (A549 [7]): 40 nM
–	–	–	C=COc1c(OC)c(OC)cc2c1-c1ccc(OC)c(=O)cc1[C@@H](NC(C)=O)CC2	–	–	IC50 (CCRF-CEM): 12 nM
98 nM	98 nM	98 nM	COc1c(Cl)c2c(c(OC)c1OC)-c1ccc(SC)c(=O)cc1[C@@H](N)CC2	98 nM	98 nM	–
–	–	92 nM	COc1cccc2c1C(=O)c1c(O)c3c(c(O)c1C2=O)C[C@@](O)(C(=O)CO)C[C@@H]3O[C@H]1C[C@H](N)[C@H](O)[C@H](C)O1 [DOXORUBICIN]	92 nM	92 nM	–
2 nM	2 nM	2 nM	CCC(=O)N[C@H]1CCc2c(Cl)c(OC)c(OC)c(OC)c2-c2ccc(SC)c(=O)cc21	2 nM	2 nM	IC50 [4]: 2 nM
2 nM	2 nM	2 nM	COc1c(Cl)c2c(c(OC)c1OC)-c1ccc(SC)c(=O)cc1[C@@H](NC(=O)C(C)C)CC2	2 nM	2 nM	IC50 [4]: 2 nM
20 nM	20 nM	20 nM	CCCCOC(=O)N[C@H]1CCc2c(Cl)c(OC)c(OC)c(OC)c2-c2ccc(SC)c(=O)cc21	20 nM	20 nM	–
–	–	–	COc1cc2c(c(OC)c1OC)-c1ccc(NC(C)C)c(=O)cc1[C@@H](NC(C)=O)CC2	–	–	IC50 (P388): 48 nM
40 nM	40 nM	40 nM	COc1c(Cl)c2c(c(OC)c1OC)-c1ccc(SC)c(=O)cc1[C@@H](NC(=O)OCCO)CC2	40 nM	40 nM	–
–	–	–	COc1cc2c(c(OC)c1OC)-c1ccc(NCCCN(C)C)c(=O)cc1[C@@H](NC(C)=O)CC2	–	–	IC50 (P388): > 10000 nM
–	–	–	COc1cc2c(c(OC)c1OC)-c1ccc(NCCOC(=O)CCC(=O)OCCCCO[N+](=O)[O-])c(=O)cc1[C@@H](NC(C)=O)CC2	–	–	IC50 (MCF7 [6]): 40 nM; IC50 (A2780): 20 nM; IC50 (Bel-7402): 40 nM; IC50 (A549 [7]): 40 nM

IC50 (LoVo)	IC50 (MCF7 [1])	IC50 (A549 [2])	SMILES	IC50 [3]	IC50 (BALB/3T3)	other results
–	–	–	CNc1ccc2c(cc1=O)[C@@H](NC(C)=O)CCc1cc(OC)c(OC)c(OC)c1-2	–	–	IC50 (P388): 29 nM
20 nM	20 nM	20 nM	COc1c(Cl)c2c(c(OC)c1OC)-c1ccc(SC)c(=O)cc1[C@@H](NC(=O)OC(C)C)CC2	20 nM	20 nM	–
–	–	–	CCOc1c(OC)c(OC)cc2c1-c1ccc(OC)c(=O)cc1[C@@H](NC(C)=O)CC2	–	–	IC50 (CCRF-CEM): 12 nM
–	–	–	COc1cc2c(c(OCc3ccccc3Cl)c1OC)-c1ccc(OC)c(=O)cc1[C@@H](NC(C)=O)CC2	–	–	IC50 (CCRF-CEM): 12 nM
–	–	–	COc1cc2c(c(OC)c1OC)-c1ccc(NCCOC(=O)CCC(=O)OCCCCCCO[N+](=O)[O-])c(=O)cc1[C@@H](NC(C)=O)CC2	–	–	IC50 (MCF7 [6]): 40 nM; IC50 (A2780): 20 nM; IC50 (Bel-7402): 40 nM; IC50 (A549 [7]): 40 nM
5 nM	5 nM	5 nM	COCC(=O)N[C@H]1CCc2c(Cl)c(OC)c(OC)c(OC)c2-c2ccc(SC)c(=O)cc21	5 nM	5 nM	IC50 [4]: 5 nM
–	–	–	COc1cc2c(c(OC)c1OC)-c1ccc(NCCOC(=O)CCC(=O)Oc3ccc(CO[N+](=O)[O-])cc3)c(=O)cc1[C@@H](NC(C)=O)CC2	–	–	IC50 (MCF7 [6]): 17 nM; IC50 (A2780): 20 nM; IC50 (Bel-7402): 17 nM; IC50 (A549 [7]): 17 nM
8 nM	8 nM	8 nM	CCOC(=O)N[C@H]1CCc2c(Cl)c(OC)c(OC)c(OC)c2-c2ccc(SC)c(=O)cc21	8 nM	8 nM	–
–	–	–	CCCOc1c(OC)c(OC)cc2c1-c1ccc(OC)c(=O)cc1[C@@H](NC(C)=O)CC2	–	–	IC50 (CCRF-CEM): 12 nM
–	–	–	COc1cc2c(c(OC)c1OC)-c1ccc(NCC(C)C)c(=O)cc1[C@@H](NC(C)=O)CC2	–	–	IC50 (P388): 320 nM
8 nM	8 nM	8 nM	CCCOC(=O)N[C@H]1CCc2c(Cl)c(OC)c(OC)c(OC)c2-c2ccc(SC)c(=O)cc21	8 nM	8 nM	–
–	–	–	COc1cc2c(c(O)c1OC)-c1ccc(OC)c(=O)cc1[C@@H](NC(C)=O)CC2	–	–	IC50 (CCRF-CEM): 15 nM
–	–	–	COc1cc2c(c(OC)c1OC)-c1ccc(NCCOC(=O)CCC(=O)Oc3cccc(CO[N+](=O)[O-])c3)c(=O)cc1[C@@H](NC(C)=O)CC2	–	–	IC50 (MCF7 [6]): 17 nM; IC50 (A2780): 20 nM; IC50 (Bel-7402): 17 nM; IC50 (A549 [7]): 17 nM
10 nM	10 nM	10 nM	COc1c(Cl)c2c(c(OC)c1OC)-c1ccc(SC)c(=O)cc1[C@@H](NC(=O)CCCCl)CC2	10 nM	10 nM	IC50 [4]: 10 nM
7 nM	7 nM	7 nM	COc1c(Cl)c2c(c(OC)c1OC)-c1ccc(SC)c(=O)cc1[C@@H](NC(=O)c1ccccc1)CC2	7 nM	7 nM	IC50 [4]: 7 nM
21 nM	10 nM	11 nM	COc1c(F)c2c(c(OC)c1OC)-c1ccc(SC)c(=O)cc1[C@@H](NC(C)=O)CC2	398 nM	114 nM	–
7 nM	7 nM	7 nM	COc1c(Cl)c2c(c(OC)c1OC)-c1ccc(SC)c(=O)cc1[C@@H](NC(=O)OCC(F)(F)F)CC2	7 nM	7 nM	–
–	–	–	COc1cc2c(c(OC)c1OC)-c1ccc(NCCOC(=O)CCC(=O)OCCO[N+](=O)[O-])c(=O)cc1[C@@H](NC(C)=O)CC2	–	–	IC50 (MCF7 [6]): 40 nM; IC50 (A2780): 20 nM; IC50 (Bel-7402): 40 nM; IC50 (A549 [7]): 40 nM
27 nM	27 nM	27 nM	CCN(CC)C(=O)N[C@H]1CCc2c(Cl)c(OC)c(OC)c(OC)c2-c2ccc(SC)c(=O)cc21	27 nM	27 nM	IC50 [4]: 27 nM
–	–	–	CCNc1ccc2c(cc1=O)[C@@H](NC(C)=O)CCc1cc(OC)c(OC)c(OC)c1-2	–	–	IC50 (P388): 29 nM
93 nM	93 nM	93 nM	COc1c(Cl)c2c(c(OC)c1OC)-c1ccc(SC)c(=O)cc1[C@@H](NC(=O)OCCOCCO)CC2	93 nM	93 nM	–
–	–	–	COc1cc2c(c(OC)c1OC)-c1ccc(NCCOC(=O)CCC(=O)OCCCO[N+](=O)[O-])c(=O)cc1[C@@H](NC(C)=O)CC2	–	–	IC50 (MCF7 [6]): 40 nM; IC50 (A2780): 20 nM; IC50 (Bel-7402): 40 nM; IC50 (A549 [7]): 40 nM

SMILES	IC50 (LoVo)	IC50 (MCF7 [1])	IC50 (A549 [2])	IC50 [3]	IC50 (BALB/3T3)	other results
COc1c(Br)c2c(c(OC)c1OC)-c1ccc(SC)c(=O)cc1[C@@H](NC(C)=O)CC2	14 nM	–	–	135 nM	–	–
COc1c(Cl)c2c(c(OC)c1OC)-c1ccc(SC)c(=O)cc1[C@@H](NC(C)=O)CC2	22 nM	22 nM	22 nM	111 nM	22 nM	–
COc1c(I)c2c(c(OC)c1OC)-c1ccc(SC)c(=O)cc1[C@@H](NC(C)=O)CC2	7 nM	17 nM	11 nM	642 nM	115 nM	–
